# Patent US7183287B2, “Substituted pyrimidinones” (Pharmacia Corporation, priority 2003, dated 2007)
# pIC50: −log10 of the molar value.
# Target: T1, human p38 kinase alpha (Homo sapiens, UniProt Q16539)
# T1 construct: The coding region of the human p38a cDNA is obtained by PCR-amplification from RNA isolated from the human monocyte cell line THP.1; made in house; host or cells: E. coli DH10B (plasmid pMON 35802, pGEX 2T)
# Assay: p38 kinase alpha in vitro assay (phosphorylation of PHAS-I with 32P-ATP or of EGFRP with 33P-ATP)
# Format: biochemical
# Protocol: The ability of compounds to inhibit human p38 kinase alpha is evaluated using two in vitro assay methods. In the first method, activated human p38 kinase alpha phosphorylates a biotinylated substrate, PHAS-I (phosphorylated heat and acid stable protein-insulin inducible), in the presence of gamma ^32P-ATP (^32P-ATP). PHAS-I is biotinylated prior to the assay and provides a means of capturing the substrate, which is phosphorylated during the assay. p38 Kinase is activated by MKK6. Compounds were tested in 10 fold serial dilutions over the range of 100 μM to 0.001 μM using 1% DMSO. Each concentration of inhibitor is tested in triplicate.
# All reactions are carried out in 96 well polypropylene plates. Each reaction well contains 25 mM HEPES pH 7.5, 10 mM magnesium acetate and 50 μM unlabeled ATP. Activation of p38 is required to achieve sufficient signal in the assay. Biotinylated PHAS-I is used at 1–2 μg per 50 μl reaction volume, with a final concentration of 1.5 μM. Activated human p38 kinase alpha is used at 1 μg per 50 μl reaction volume representing a final concentration of 0.3 μM. Gamma ^32P-ATP is used to follow the phosphorylation of PHAS-I. ^32P-ATP has a specific activity of 3000 Ci/mmol and is used at 1.2 μCi per 50 μl reaction volume. The reaction proceeds either for one hour or overnight at 30° C.
# Following incubation, 20 μl of reaction mixture is transferred to a high capacity streptavidin coated filter plate (SAM-streptavidin-matrix, Promega) prewetted with phosphate buffered saline. […] The plates are sealed and counted.
# A second assay format is also employed that is based on p38 kinase alpha induced phosphorylation of EGFRP (epidermal growth factor receptor peptide, a 21 mer) in the presence ^33P-ATP. […] Compounds were evaluated in 50 μl reaction volumes in the presence of 25 mM Hepes pH 7.5, 10 mM magnesium acetate, 4% glycerol, 0.4% bovine serum albumin, 0.4 mM DTT, 50 μM unlabeled ATP, 25 μg EGFRP (200 μM), and 0.05 μCi ^33P-ATP. […] 150 μl of Microscint 40 is then added to each well of the Microlite plate, and the plate is sealed, mixed, and counted.
# T1 sequence (Q16539 whole entry): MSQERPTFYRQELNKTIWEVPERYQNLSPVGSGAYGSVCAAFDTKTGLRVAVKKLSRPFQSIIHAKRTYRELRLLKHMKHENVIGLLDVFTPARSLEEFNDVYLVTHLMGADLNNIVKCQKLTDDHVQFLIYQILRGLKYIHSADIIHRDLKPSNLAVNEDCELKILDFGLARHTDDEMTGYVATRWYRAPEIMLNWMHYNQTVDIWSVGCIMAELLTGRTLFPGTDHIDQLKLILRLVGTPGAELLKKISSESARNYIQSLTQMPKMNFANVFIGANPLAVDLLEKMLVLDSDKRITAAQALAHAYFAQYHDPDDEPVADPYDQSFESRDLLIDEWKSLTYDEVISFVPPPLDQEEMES
row,pIC50,Structure (SMILES)
1,> 5.30,O=c1c(Br)c(OCc2ccccc2)ncn1Cc1ccccc1
2,> 5.30,COC(=O)c1ccc(C)c(-n2c(C)nc(OCc3ccc(F)cc3F)c(Br)c2=O)c1
3,> 5.30,CNC(=O)c1ccc(C)c(-n2c(C)nc(OCc3ccc(F)cc3F)c(Br)c2=O)c1
